System: COVID-19
Details: human, in vivo

With `O=C([O-])O.[Na+]` [bicarbonate of soda, sodium bicarbonate] the “second swab test (Covid-19)” value was “non-conclusive”, the “third swab test (Covid-19)” value was “negative” and the “symptoms after the first 2/3rds of a dose” value (po) was “no symptoms”.

Source: US20230010375A1, “ANTI-VIRAL COMPOSITION” (priority 2020, published 2023)
